Assay results published in US5117052A, “Physiologically active substances, benastatins A and B, and production and use thereof” (priority 1990, dated 1992).
Converted amounts (≈) assume the structure as drawn.

Legend:
[1] = system: Klebsiella pneumoniae PCI602; assay: Agar dilution assay, minimum growth inhibition concentration; assay type: cell-based; conditions: Klebsiella pneumoniae PCI602; read-out: Minimum growth-inhibition concentration
[2] = system: spleen cells (LPS lymphocyte blast formation reaction); assay: Suppression of LPS-induced lymphocyte blast formation, [3H]-thymidine uptake (Test 2); assay type: cell-based, BALB/c mouse; conditions: Mus musculus, LPS 100 μg/ml, 72 hours, read-out: IC50, 50% suppression of lymphocyte blast formation (LPS)
Procedure: (§1) A pharmacological test was made about a suppression activity of benastatins on the lymphocyte blast formation reaction.
(§2) In this test, use was made of an RPMI 1640 culture medium supplemented with 20% bovin fetus serum, 25 mM Hepes buffer, 100 μg/ml streptomycin and 100 units/ml penicillin G. The cultivation was effected by using microplate (COSTAR) with a flat bottom and with 96 wells. As mitogens, use was made of lipopolysaccharide (LPS) and concanavalin A (Con A) at concentrations of 100 and 5 μg/ml, respectively.
(§3) After spleen cells were taken out from BALB/c mouse (female, 25 weeks old), a unicellular suspension of the spleen cells was prepared, and then subjected to a hyper shock treatment to remove erythrocytes therefrom.
(§4) Each well was charged with 0.2 ml of a sample which contained 2×10^5 spleen cells and the test compound at a predetermined concentration. The cultivation was conducted for 72 hours. Before 8 hours from the completion of cultivation, each well was further charged with 37 KBq of [^3 H]-thymidine to determine the amount of the thymidine taken into the cells. […]

[3] = system: spleen cells (Con A lymphocyte blast formation reaction); assay: Suppression of Con A-induced lymphocyte blast formation, [3H]-thymidine uptake (Test 2); assay type: cell-based, BALB/c mouse; conditions: Mus musculus, Con A 5 μg/ml, 72 hours, read-out: IC50, 50% suppression of lymphocyte blast formation (Con A)
Procedure: as §1, §2, §3, §4

Aspergillus niger F-16 = assay: Agar dilution assay, minimum growth inhibition concentration; assay type: cell-based; conditions: F16; Aspergillus niger F-16; read-out: Minimum growth-inhibition concentration
glutathione transferase = target: T1, glutathione transferase (Rattus norvegicus, UniProt P04905); assay: Glutathione transferase inhibition activity (3,4-dichloronitrobenzene/glutathione, absorption at 345 nm); assay type: biochemical
T1 construct: obtained from a homogenate of rat liver; from tissue; host or cells: rat liver homogenate, partially purified by DEAE-cellulose column and ammonium sulfate salting-out
T1 sequence (P04905 2-218 limits assumed): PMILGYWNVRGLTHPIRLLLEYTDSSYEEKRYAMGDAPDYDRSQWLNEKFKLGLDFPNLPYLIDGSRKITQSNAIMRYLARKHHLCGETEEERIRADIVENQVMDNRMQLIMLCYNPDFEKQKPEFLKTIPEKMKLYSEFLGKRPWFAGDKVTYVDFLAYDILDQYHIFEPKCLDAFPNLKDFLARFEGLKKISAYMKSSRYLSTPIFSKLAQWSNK
Procedure: The glutathione transferase inhibition activity was determined by a modified method based on the known method described in Biochemical and Biophysical Research Communications, 112, 980-985 (1983).
A test tube was charged with a solution mixture consisting of (a) 0.1 ml of 90 mM glutathione (reduction type), (b) 0.05 ml of 20 mM 3,4-dichloronitrobenzene, (c) 1.7 ml of 0.1M potassium phosphate buffer solution (pH 7.4) and (d) 0.1 ml of an aqueous solution containing the test compound. The solution mixture was heated to 37° C. for 3 minutes, and admixed with 0.05 ml of a glutathione transferase solution to effect a reaction at 37° C. for 30 minutes. The glutathione transferase solution employed was one which had been obtained from a homogenate of rat liver and which had been patially refined by means of a DEAE-cellulose column and of salting out-operation with ammonium sulfate.
After the completion of the reaction, the sample was measured for the light absorption (a) at 345 nm. At the same time, a control sample which was free of the test compound and which contained only the buffer solution was measured for the light absorption (b) at 345 nm.
The glutathione transferase inhibition activity was determined according to the formula: […]
IC50, which is the concentration of a test compound required for 50% inhibition, was recorded.

Candida tropicalis F-1 = assay: Agar dilution assay, minimum growth inhibition concentration; assay type: cell-based; conditions: F1; Candida tropicalis F-1; read-out: Minimum growth-inhibition concentration
[4] = system: Shigella dysenteriae JS11910; assay: as above; assay type: cell-based; conditions: JS11910, read-out: Minimum growth-inhibition concentration
Proteus rettgeri GN311 = assay: as above; assay type: cell-based; conditions: Providencia rettgeri; Proteus rettgeri GN311; read-out: Minimum growth-inhibition concentration
[5] = system: Staphylococcus aureus No. 5 (MRSA); assay: as above; assay type: cell-based; conditions: read-out: Minimum growth-inhibition concentration
[6] = system: Mycabacterium smegmatis ATCC607; assay: as above; assay type: cell-based; conditions: Mycabacterium smegmatis ATCC607; read-out: Minimum growth-inhibition concentration
Escherichia coli NIHJ = assay: as above; assay type: cell-based; conditions: Escherichia coli NIHJ; read-out: Minimum growth-inhibition concentration
Salmonella typhi T-63 = assay: as above; assay type: cell-based; conditions: Salmonella enterica
[7] = system: Saccharomyces cerevisiae F-7; assay: Agar dilution assay, minimum growth inhibition concentration; assay type: cell-based; conditions: F7; Saccharomyces cerevisiae F-7; read-out: Minimum growth-inhibition concentration
mouse = assay: Toxicity on administration to the abdominal cavity; assay type: in vivo; conditions: 100 mg/kg
Source text: Benastatins A and B were each administered to the abdominal cavity of a mouse to examine the toxicity thereof.

Pyricularia oryzae = assay: microbe, parasite or virus in culture; assay type: cell-based; conditions: read-out: Minimum growth-inhibition concentration
[8] = system: Pseudomanas aeruginosa A3; assay: Agar dilution assay, minimum growth inhibition concentration; assay type: cell-based; conditions: Pseudomanas aeruginosa A3; read-out: Minimum growth-inhibition concentration
[9] = system: Staphylococcus aureus No. 17 (MRSA); assay: as above; assay type: cell-based; conditions: read-out: Minimum growth-inhibition concentration
Micrococcus luteus FDA16 = assay: as above; assay type: cell-based
Procedure: (§5) The minimum of microorganism growth inhibition concentrations of benastatins A and B were determined for various bacteria, east and fungi according to a conventional agar dilution assay method. It will be seen from Table 1 that benastatins A and B have a satisfactory antimicrobial activity, particularly against gram-positive bacteria, etc.

[10] = system: Staphylococcus aureus Smith; assay: as above; assay type: cell-based
Procedure: as §5

[11] = system: Bacillus cereus ATCC10702; assay: as above; assay type: cell-based
Procedure: as §5

Cochliobolus miyabeanus = assay: as above; assay type: cell-based; conditions: Bipolaris oryzae
Procedure: as §5

[12] = system: Cryptococcus neoformans F-10; assay: as above; assay type: cell-based; conditions: F10
Procedure: as §5

[13] = system: Bacillus subtilis NRRL B-558; assay: as above; assay type: cell-based; conditions: NRRLB558
Procedure: as §5

[14] = system: Corynebacterium bovis 1810; assay: as above; assay type: cell-based
Procedure: as §5

[15] = system: Staphylococcus aureus MS9610; assay: as above; assay type: cell-based
Procedure: as §5

In the case of `CCCCCc1cc2ccc3c(O)c4c(cc3c2c(O)c1C(=O)O)C(C)(C)c1cc(O)cc(O)c1C4=O` [Benastatin A, benastatin A], the MIC [1] is reported as > 50 µg/mL, the IC50 [2] is reported as 7.7 µg/mL (≈ 15.4 µM) and the IC50 [3] is reported as 7.3 µg/mL (≈ 14.6 µM). The MIC (Aspergillus niger F-16) was > 50 µg/mL, the IC50 (glutathione transferase) was 4.99 µM and the MIC (Candida tropicalis F-1) was > 50 µg/mL. The MIC [4] was > 50 µg/mL, the MIC (Proteus rettgeri GN311) was 50 µg/mL (≈ 99.9 µM) and the MIC [5] was 3.12 µg/mL (≈ 6.23 µM). For the same compound, the MIC [6] was 50 µg/mL (≈ 99.9 µM), the MIC (Escherichia coli NIHJ) was 100 µg/mL (≈ 200 µM) and the MIC (Salmonella typhi T-63) was > 50 µg/mL. The “Solubility in organic solvents” value (Solubility; dimethyl sulfoxide, methanol, acetone, ethyl acetate) was “soluble”, the Solubility in water (Solubility; water) was “insoluble” and the MIC [7] was > 100 µg/mL. The Toxicity (mouse) was “No toxicity was observed”, the MIC (Pyricularia oryzae) was 50 µg/mL (≈ 99.9 µM) and the MIC [8] was > 50 µg/mL. The MIC [9] was 3.12 µg/mL (≈ 6.23 µM), the MIC (Micrococcus luteus FDA16) was 3.12 µg/mL (≈ 6.23 µM) and the MIC [10] was 3.12 µg/mL (≈ 6.23 µM). For the same compound, the MIC [11] was 3.12 µg/mL (≈ 6.23 µM), the MIC (Cochliobolus miyabeanus) was > 25 µg/mL and the MIC [12] was 50 µg/mL (≈ 99.9 µM). The MIC [13] was 3.12 µg/mL (≈ 6.23 µM), the MIC [14] was 3.12 µg/mL (≈ 6.23 µM) and the MIC [15] was 3.12 µg/mL (≈ 6.23 µM).
